# In patent US8299022B2, “Analogs of ghrelin substituted at the N-terminal” (IPSEN Pharma S.A.S., priority 2006, dated 2012):
# Like-named read-outs stand apart in the source and are kept apart here. * marks the point of attachment. Octanoyl = CCCCCCCC(=O)*
# Key:
# [1] = rat, in vivo; cited from earlier work
# [2] = human, in vivo; cited from earlier work
# [3] = target: T1, human GSH receptor (Homo sapiens, UniProt Q92847); assay: In vitro GSH receptor mediated intracellular iCa2+ mobilization (Fura-2AM, CHO-K1 cells); type: cell-based; details: CHO-K1 cells expressing the human receptor, 37° C.
# T1 construct: The full length human GHS-R was subcloned into the mammalian expression vector pcDNA 3.1; expressed in transfected cells
# T1 sequence (Q92847 whole entry): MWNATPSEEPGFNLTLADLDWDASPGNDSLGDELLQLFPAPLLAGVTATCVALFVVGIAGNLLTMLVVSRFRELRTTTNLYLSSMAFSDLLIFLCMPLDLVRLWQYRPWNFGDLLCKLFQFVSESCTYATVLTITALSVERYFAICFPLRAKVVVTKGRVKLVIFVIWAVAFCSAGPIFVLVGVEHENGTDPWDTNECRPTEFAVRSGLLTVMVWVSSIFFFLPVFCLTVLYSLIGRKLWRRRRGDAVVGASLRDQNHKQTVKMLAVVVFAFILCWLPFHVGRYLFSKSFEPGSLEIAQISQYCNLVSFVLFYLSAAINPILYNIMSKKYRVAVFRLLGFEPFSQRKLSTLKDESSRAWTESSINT
# Experimental: 2A. In vitro GSH Receptor Mediated Intracellular iCa^2+Mobilization
# The foregoing CHO-K1 cells expressing the human GSH receptor were harvested by incubating in a 0.3% EDTA/phosphate buffered saline solution at 25° C.; the cells were then washed 2 times by centrifugation. The washed cells were resuspended in Hank's buffered saline solution (HBSS) for loading of the fluorescent Ca^2+ indicator Fura-2AM. Cell suspensions of approximately 10^6 cells/ml were incubated with 2 μM Fura-2AM for about 30 minutes at about 25° C. Unloaded Fura-2AM was removed by centrifugation twice in HBSS and the final suspensions were transferred to a spectrofluorometer (model Hitachi F-2000® Tokyo, Japan) equipped with a magnetic stirring mechanism and a temperature-regulated cuvette holder. After equilibration to 37° C., the ghrelin analogs were added for measurement of intracellular Ca^2+ mobilization. The excitation and emission wavelengths were 340 and 510 nm, respectively. An increase in the amount of Ca^2+ measured was indicative of agonist activity of a tested peptide while a decrease in the amount (or lack of) Ca^2+ measure was indicative of antagonist activity of a tested peptide.
# [4] = Rat plasma ½ life (stability in plasma in a rat model); type: in vitro ADME
# Experimental: A selection of the preferred embodiments listed above was analyzed to determine stability, i.e. ½ life in plasma in a rat model using techniques known to those skilled in the art.
Compound,apparent half-life of exogenous ghrelin [1] [min],apparent half-life of exogenous ghrelin [2] [min],agonist/antagonist activity at the ghrelin receptor (intracellular Ca2+ mobilization) [3],Rat Plasma ½ life [4] [h]
H-Gly-Ser-Ser-Phe-Leu-Ser-Pro-Glu-His-Gln-Arg-Val-Gln-Gln-Arg-Lys-Glu-Ser-Lys-Lys-Pro-Pro-Ala-Lys-Leu-Gln-Pro-Arg-NH2 (H-GSS(Octanoyl)FLSPEHQRVQQRKESKKPPAKLQPR-NH2; listed as Homo sapiens) [ghrelin],30,10,,
"CCCCCCNC(=O)CC[C@H](NC(=O)C(C)(C)NC(=O)C1CCN(C(C)=O)CC1)C(=O)N[C@@H](Cc1ccccc1)C(=O)N[C@@H](CC(C)C)C(=O)N[C@@H](CO)C(=O)N1CCC[C@H]1C(=O)N[C@@H](CCC(=O)O)C(=O)N[C@@H](Cc1c[nH]cn1)C(=O)NC(C)(C)C(=O)N[C@@H](CCCNC(=N)N)C(=O)N[C@H](C(=O)N[C@@H](CCC(N)=O)C(=O)N[C@@H](CCC(N)=O)C(=O)N[C@@H](CCCNC(=N)N)C(=O)N[C@@H](CCCCN)C(=O)N[C@@H](CCC(=O)O)C(=O)N[C@@H](CO)C(=O)N[C@@H](CCCCN)C(=O)N[C@@H](CCCCN)C(=O)N1CCC[C@H]1C(=O)N1CCC[C@H]1C(=O)N[C@@H](C)C(=O)N[C@@H](CCCCN)C(=O)N[C@@H](CC(C)C)C(=O)N[C@@H](CCC(N)=O)C(=O)N1CCC[C@H]1C(=O)N[C@@H](CCCNC(=N)N)C(N)=O)C(C)C [Example 1, (Ac-Inp^1, Aib^2, 10, Glu(NH-hexyl)^3)hGhrelin(1-28)-NH2]",,,antagonistic activity,9.4
"CCCCCCNC(=O)CC[C@H](NC(=O)C(C)(C)NC(=O)C1CCNCC1)C(=O)N[C@@H](Cc1ccccc1)C(=O)N[C@@H](CC(C)C)C(=O)N[C@@H](CO)C(=O)N1CCC[C@H]1C(=O)N[C@@H](CCC(=O)O)C(=O)N[C@@H](Cc1c[nH]cn1)C(=O)NC(C)(C)C(=O)N[C@@H](CCCNC(=N)N)C(=O)N[C@H](C(=O)N[C@@H](CCC(N)=O)C(=O)N[C@@H](CCC(N)=O)C(=O)N[C@@H](CCCNC(=N)N)C(=O)N[C@@H](CCCCN)C(=O)N[C@@H](CCC(=O)O)C(=O)N[C@@H](CO)C(=O)N[C@@H](CCCCN)C(=O)N[C@@H](CCCCN)C(=O)N1CCC[C@H]1C(=O)N1CCC[C@H]1C(=O)N[C@@H](C)C(=O)N[C@@H](CCCCN)C(=O)N[C@@H](CC(C)C)C(=O)N[C@@H](CCC(N)=O)C(=O)N1CCC[C@H]1C(=O)N[C@@H](CCCNC(=N)N)C(N)=O)C(C)C [Example 3, (Inp^1, Aib^2, 10, Glu(NH-hexyl)^3)hGhrelin(1-28)-NH2]",,,antagonistic activity,10.6
